Test results: patent US20020092037A1, “Use of membrane supports in plant tissue culture processes” (priority 2000, published 2002)

System: P. taeda embryogenic cell lines
Test: Growth of non-transgenic, transgenic and mixed pine cell cultures on GENETICIN selection medium with support treatments, P. taeda
Type: cell-based, Pinus taeda
Conditions: 15 mg/L in DCR selection medium
Experimental: Stably transformed pine tissue had been generated using a particle bombardment method and selected for the presence of an inserted antibiotic resistance gene, nptII, on DCR2 gelled medium (Table 5), in this example containing 15 mg/L GENETICIN®, hereinafter referred to as DCR selection medium. Additionally, the presence of an inserted gus gene, encoding a β-glucuronidase enzyme in tissue culture cells, had been detected by deep blue staining of cells from each of the transgenic lines upon exposure to a colorigenic glucuronidase enzyme substrate (commercially available from Inalco, Inc.), according to techniques well known to those skilled in the art of plant transformation, and the presence of both transgenes had been verified by use of the polymerase chain reaction (PCR) using techniques well known to those skilled in the art of molecular biology. The transgenic pine lines containing and expressing both transgenes had then been cryopreserved as described in Example 4 above. […]
Cells, or the supports bearing the cells, were transferred onto fresh selection medium at biweekly intervals, and fresh weight of cells for each plate was recorded at each biweekly transfer, for a total of eight weeks (Table 19). […]

CN[C@@H]1[C@@H](O)[C@@H](O[C@@H]2[C@@H](O)[C@H](O[C@H]3O[C@H]([C@@H](C)O)[C@@H](O)[C@H](O)[C@H]3N)[C@@H](N)C[C@H]2N)OC[C@]1(C)O [GENETICIN®]
selection of non-transformed versus transformed pine tissue: sufficient to kill the non-transformed tissue while allowing growth of the transformed tissue
